Measured values as given in patent US20090170932A1, “DISINFECTANT COMPOSITIONS, METHODS AND SYSTEMS” (Tyco Healthcare Group LP, priority 2007, published 2009).
Several values for one entry are separate records, joined by “and”; a condition that tells them apart may be missing. Equal values may be shown once.

Experiments:
[1] = system: blood coagulation (clotting); assay: Prothrombin Time (PT) Assay, INR; assay type: biochemical; settings: single agent, within the tested range
Method: Experiments were conducted to assess the anticoagulant capacities of NAC, Vitamin C and combinations of NAC and Vitamin C via a Prothrombin Time (PT) Assay. A PT assay (TM-4339-063) was conducted using a Coagulation Analyzer to obtain PT instead of manually recording the PT. […] INR (International Normalized Ratio) is a system established by the World Health Organization (WHO) and the International Committee on Thrombosis and Hemostasis for reporting the results of blood coagulation (clotting) tests. INR is calculated as: INR=([…] sample/PTnormal control)^ISI ISI (International Sensitivity Index) indicates the sensitivity of individual thromboplastin. […] All the PTs greater than 3× the […] 1 (normal control) were replaced with 31 seconds.

[2] = system: Staphylococcus aureus (organism # 25923); assay: pH experiments: MBC (minimum bactericidal concentration); assay type: cell-based; settings: S. aureus
Method: (§1) In order to determine MIC and MBC (minimum bactericidal concentration) a National Committee on Clinical Laboratory Standards (NCCLS) micro-dilution procedure was followed. […] In the current protocol 100 μL of MHB was mixed with 90 μL of formulation and 10 μL of log 8 organism or the highest achievable concentration. The concentration of the formulation was adjusted to obtain the required concentration in the final solution. The mixture was incubated at 37 degree C. for 16-24 hrs. After 16-24 hours the absorbance value was read at 600 nm. The obtained data was corrected by subtracting the appropriate blanks. Finally, the wells having an absorbance≧0.1 were marked + and <0.1 were marked −. The + symbol indicated growth while − symbol indicates no growth. […] Staphylococcus aureus (organism # 25923) was obtained from ATCC. […] N-acetyl cysteine (NAC) was used (Acros, Catalogue # 160280250, Lot # A0229576). A 4 wt % NAC solution in water was prepared at a pH of 4. A 4 wt % NAC solution in water was prepared at a pH of 6. […] These solutions were then serially diluted as necessary to obtain the required concentrations. […]

Osmolarity of solutions = assay type: physicochemical; settings: 4 wt % (w/v) of each component in solution
From the text: Formulation and production of disinfectant compositions of the present disclosure are generally straightforward. […] The disinfectant solution may then be sterilized using conventional means, such as filtration and/or ultrafiltration, and other means. […] The solutions are preferably formulated using USP materials.

P. aeruginosa = assay: Checkerboard Titration (FIC index); assay type: cell-based; settings: for FIC of the single component (FIC-NAC, FIC-VC): P. aeruginosa, MIC in combination / MIC alone
Method: (§2) The method used was a NCCLS micro-dilution procedure. […] The following concentrations were tested (for S. aureus see FIG. 9 and for P. aeruginosa see FIG. 7 for combinations at a pH<4): [table] Fraction Inhibitory Concentration (FIC) is defined as the MIC of the compound in combination divided by the MIC of the compound alone. If the FIC index is ≦0.5, the combination is interpreted to be synergistic; <1 but >0.5-as partially synergistic; =1 as additive; >1 but <4 as indifferent; and ≧4 as antagonistic.

[3] = in vivo; cited from earlier work
S. aureus = assay: Checkerboard Titration (FIC index), pH<4; assay type: cell-based; settings: for FIC of the single component (FIC-NAC, FIC-VC): S. aureus, MIC in combination / MIC alone
Method: as §2

blood coagulation = settings: patients; cited publications; cited from earlier work
[4] = system: Staphylococcus aureus (organism # 25923); assay: pH experiments: MIC at adjusted pH, NCCLS micro-dilution; assay type: cell-based; settings: S. aureus
Method: as §1

[5] = cited from earlier work
[6] = system: Staphylococcus aureus (organism # 25923); assay: MIC test, NCCLS micro-dilution; assay type: cell-based; settings: S. aureus; pH not adjusted (pH < 4); listed as VC
Method: (§3) The minimum concentration of a composition required to inhibit growth is known as the minimum inhibitory concentration (MIC). In order to determine MIC a National Committee on Clinical Laboratory Standards (NCCLS) micro-dilution procedure was followed. […] In the current protocol 100 μL of MHB was mixed with 90 μL of formulation and 10 μL of log 8 organism or the highest achievable concentration. The concentration of the formulation was adjusted to obtain the required concentration in the final solution. The mixture was incubated at 37 degree C. for 16-24 hrs. After 16-24 hours the absorbance value was read at 600 nm. The obtained data was corrected by subtracting the appropriate blanks. Finally, the wells having an absorbance≧0.1 were marked + and <0.1 were marked −. The + symbol indicated growth while − symbol indicates no growth. […] In cases where the positive growth controls corrected absorbance is lower than 0.5, an alternate rule is utilized which is “absorbance<than 20% of positive growth control is marked as − growth, while absorbance≧than 20% of positive growth control is marked as + growth”. Staphylococcus aureus (organism # 25923), Pseudomonas aeruginosa (Organism # 27853) and Candida Albicans (Organism # 10231) was obtained from ATCC. […] N-acetyl cysteine (NAC) was used (Acros, Catalogue # 160280250, Lot # A0229576). A 8 wt % NAC solution in water was prepared. […]

[7] = system: Candida Albicans (Organism # 10231); assay: MIC test, NCCLS micro-dilution; assay type: cell-based; settings: C. albicans; pH not adjusted
Method: as §3

[8] = pH of 6, 2.0 wt % starting point
[9] = pH=6, 2.0% (w/v) starting point

SMILES | Change of INR with increase in concentration [1] | MBC ([2]; pH of 4) | MBC ([2]; pH=4) | osmolarity (Osmolarity of solutions) | MIC-NAC / MIC-VC (MIC of the component in combination with the other) (P. aeruginosa; P. aeruginosa in MHB) | FIC of the single component (FIC-NAC, FIC-VC) (P. aeruginosa) | dose shown to be safe for administration to humans [3] | MIC-NAC / MIC-VC (MIC of the component in combination with the other) (S. aureus; S. aureus in MHB) | FIC of the single component (FIC-NAC, FIC-VC) (S. aureus) | Anti-coagulant effect (literature) (blood coagulation) | MIC ([4]; pH of 4) | MIC [4, 8] | MIC ([4]; pH=4) | MIC [4, 9] | Solubility in chloroform and ether [5] | MIC [6] | MIC [7] | MIC ([4]; pH of 6, 2.0 wt % starting point, listed as VC)
CC(=O)N[C@@H](CS)C(=O)O [NAC, N-acetyl-L-cysteine] | increase in INR | 2.0 wt % | 2.0 % (w/v) | 237 mOsm/Kg | 0.25 % (w/v) | 0.35 | 1200 mg/day | 0.25 % (w/v) | 0.4 | some anti-coagulant effect | 2.0 wt % and 2 wt % | >2 wt % | 2.0 % (w/v) | > 2.0 % (w/v) | practically insoluble |  |  | 
O=C1O[C@H]([C@@H](O)CO)C(O)=C1O [Vitamin C, L-ascorbic acid] | no significant increase in INR | 1.0 wt % | 1.0 % (w/v) | 223 mOsm/Kg |  | 0.35 |  |  | 0.4 | has not been identified as an effective anticoagulant when compared with heparin | 0.5 wt % | > 2.0 wt % | 0.5 % (w/v) | > 2.0 % (w/v) |  | 0.25 wt % | > 8 wt % | >2 wt %
